Measurements published in paper PMC6270991, “Design and Synthesis of Thiazolo[5,4-f]quinazolines as DYRK1A Inhibitors, Part I” (Molecules, 2014).
Where two headings read alike, the source gives them in different places.

Legend:
[1] = target: CK1δ/ε; assay: CK1δ/ε in vitro kinase assay (33P-ATP, CK1-specific peptide substrate); type: biochemical, Porcine; settings: 15 μM ATP, 30 min at 30 °C, triplicate; <50% inhibition at 10 µM reported as >10
Method: (§1) Controls were performed with appropriate dilutions of dimethylsulfoxide (DMSO). IC50 values were calculated from dose-response curves established by Sigma-Plots. The GSK-3, CK1, DYRK1A and CLK1 peptide substrates were obtained from Proteogenix (Oberhausbergen, France).
(§2) CDK5/p25. (Human, recombinant) was prepared as previously described. […] ATP (3000 Ci/mmol; 10 mCi/mL) in a final volume of 30 μL. After 30 min incubation at 30 °C, 25 μL aliquots of supernatant were spotted onto sheets of Whatman P81 phosphocellulose paper, and 20 s later, the filters were washed eight times (for at least 5 min each time) in a solution of 10 mL phosphoric acid/L of water. The wet filters were counted in the presence of 1 mL ACS (Amersham) scintillation fluid.
CK1δ/ε. (Porcine brain, native) was assayed as described for CDK5/p25, but using the CK1-specific peptide substrate […]pSAYSITA [23].

[2] = target: DYRK1A (Rattus norvegicus, UniProt Q63470); assay: DYRK1A in vitro kinase assay (33P-ATP, Woodtide substrate); type: biochemical
Method: (§3) Buffer A: MgCl2 (10 mM), 1 mM ethylene glycol-bis(2-aminoethylether)-N,N,N',N'-tetraacetic acid (EGTA), 1 mM dithiothreitol (DTT), 25 mM Tris-HCl pH 7.5, 50 μg heparin/mL.
as §1, §2

[3] = target: T1, CDK5/p25 (Homo sapiens, UniProt Q00535); assay: CDK5/p25 in vitro kinase assay (33P-ATP, histone H1); type: biochemical
T1 construct: made in house
T1 sequence (Q00535 whole entry): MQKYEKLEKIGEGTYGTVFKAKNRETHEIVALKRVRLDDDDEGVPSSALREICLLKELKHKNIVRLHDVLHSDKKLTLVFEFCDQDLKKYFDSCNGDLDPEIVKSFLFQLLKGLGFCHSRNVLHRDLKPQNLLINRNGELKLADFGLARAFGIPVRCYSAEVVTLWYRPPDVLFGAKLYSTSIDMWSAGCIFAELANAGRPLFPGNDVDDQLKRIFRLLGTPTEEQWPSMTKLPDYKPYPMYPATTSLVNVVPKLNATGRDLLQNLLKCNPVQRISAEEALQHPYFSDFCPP
T1 sequence (Q15078 99-307 partner limits assumed): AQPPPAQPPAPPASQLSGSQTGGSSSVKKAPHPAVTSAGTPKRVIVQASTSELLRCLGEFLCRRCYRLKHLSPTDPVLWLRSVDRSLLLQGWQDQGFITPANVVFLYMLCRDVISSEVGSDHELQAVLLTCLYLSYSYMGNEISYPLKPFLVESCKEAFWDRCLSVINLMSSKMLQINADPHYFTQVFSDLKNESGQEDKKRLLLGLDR
Method: as §3, §1, §2

[4] = target: GSK-3α/β; assay: GSK-3α/β in vitro kinase assay (33P-ATP, GS-1 peptide); type: biochemical, Porcine; settings: 15 μM ATP, 30 min at 30 °C, triplicate; <50% inhibition at 10 µM reported as >10; read-out: GSK3 IC50
Method: as §3, §1, §2
GSK-3α/β. (Porcine brain, native) was assayed as described for CDK5/p25, but in buffer A and using a GSK-3 specific substrate (GS-1: […]pSEDEEE) (pS stands for phosphorylated serine).

[5] = 15 μM ATP, 30 min at 30 °C, triplicate, <50% inhibition at 10 µM reported as >10
[6] = 15 μM ATP, 30 min at 30 °C, triplicate, <50% inhibition at 10 µM reported as >10, read-out: CDK5 IC50

SMILES | IC50 [1] | IC50 [2, 5] | IC50 [3, 6] | IC50 [4] | IC50 [2] | IC50 ([3]; read-out: CDK5 IC50) | IC50 [3]
N=C(NCCN1CCCC1)c1nc2ccc3ncnc(Nc4ccc(F)c(Cl)c4)c3c2s1 [Compound 10c, 9-(3-Chloro-4-fluorophenylamino)-N-(2-(pyrrolidin-1-yl)ethyl)thiazolo[5,4-f]quinazoline-2-carboxi-midamide] | > 10 µM | > 10 µM | > 10 µM | 2.5 µM | – | – | –
N=C(NCCN1CCCCC1)c1nc2ccc3ncnc(Nc4ccc(F)c(Cl)c4)c3c2s1 [Compound 10b, 9-(3-Chloro-4-fluorophenylamino)-N-(2-(piperidin-1-yl)ethyl)thiazolo[5,4-f]quinazoline-2-carboxi-midamide] | > 10 µM | > 10 µM | > 10 µM | 1.4 µM | – | – | –
N=C(NCCN1CCOCC1)c1nc2ccc3ncnc(Nc4ccc(Br)cc4F)c3c2s1 [Compound 9a, 9-(4-Bromo-2-fluorophenylamino)-N-(2-morpholinoethyl)thiazolo[5,4-f]quinazoline-2-carboximid-amide] | > 10 µM | > 10 µM | > 10 µM | 1.8 µM | – | – | –
COc1ccc(Nc2ncnc3ccc4nc(C(=N)NCCN5CCCC5)sc4c23)cc1 [Compound 7c, 9-(4-Methoxyphenylamino)-N-(2-(pyrrolidin-1-yl)ethyl)thiazolo[5,4-f]quinazoline-2-carboximidamide] | > 10 µM | – | – | 2 µM | > 10 µM | > 10 µM | –
CCN(CC)CCNC(=N)c1nc2ccc3ncnc(Nc4ccc(Br)cc4F)c3c2s1 [Compound 9e, 9-(4-Bromo-2-fluorophenylamino)-N-(2-(diethylamino)ethyl)thiazolo[5,4-f]quinazoline-2-carboxi-midamide] | > 10 µM | > 10 µM | > 10 µM | 2.1 µM | – | – | –
CN(C)CCNC(=N)c1nc2ccc3ncnc(Nc4ccc5c(c4)OCO5)c3c2s1 [Compound 8d, 9-(Benzo[d][1,3]dioxol-5-ylamino)-N-(2-(dimethylamino)ethyl)thiazolo[5,4-f]quinazoline-2-carboxi-midamide] | > 10 µM | 1.05 µM | > 10 µM | 0.25 µM | – | – | –
CN(C)C(=N)c1nc2ccc3ncnc(Nc4ccc(Br)cc4F)c3c2s1 [Compound 9g] | > 10 µM | 0.27 µM | > 10 µM | 0.6 µM | – | – | –
NC(=O)c1nc2ccc3ncnc(Nc4ccc(Br)cc4F)c3c2s1 [Compound 9h, 9-(4-Bromo-2-fluorophenylamino)thiazolo[5,4-f]quinazoline-2-carboxamide] | > 10 µM | – | – | 0.13 µM | 0.67 µM | > 10 µM | –
CN(C)CCNC(=N)c1nc2ccc3ncnc(Nc4ccc(F)c(Cl)c4)c3c2s1 [Compound 10d, 9-(3-Chloro-4-fluorophenylamino)-N-(2-(dimethylamino)ethyl)thiazolo[5,4-f]quinazoline-2-carboxi-midamide] | > 10 µM | > 10 µM | > 10 µM | 3 µM | – | – | –
CCN(CC)CCNC(=N)c1nc2ccc3ncnc(Nc4ccc(OC)cc4)c3c2s1 [Compound 7e, N-(2-(Diethylamino)ethyl)-9-(4-methoxyphenylamino)thiazolo[5,4-f]quinazoline-2-carboximidamide] | > 10 µM | – | – | 1.3 µM | 4 µM | > 10 µM | –
N=C(NCCN1CCCCC1)c1nc2ccc3ncnc(Nc4ccc5c(c4)OCO5)c3c2s1 [Compound 8b, 9-(Benzo[d][1,3]dioxol-5-ylamino)-N-(2-(piperidin-1-yl)ethyl)thiazolo[5,4-f]quinazoline-2-carboximi-damide] | > 10 µM | 2 µM | > 10 µM | 1.1 µM | – | – | –
COc1ccc(Nc2ncnc3ccc4nc(C(=N)NCCN5CCOCC5)sc4c23)cc1 [Compound 7a, 9-(4-Methoxyphenylamino)-N-(2-morpholinoethyl)thiazolo[5,4-f]quinazoline-2-carboximidamide] | > 10 µM | – | – | 1.1 µM | > 10 µM | > 10 µM | –
CCN(CC)CCNC(=N)c1nc2ccc3ncnc(Nc4ccc5c(c4)OCO5)c3c2s1 [Compound 8e, 9-(Benzo[d][1,3]dioxol-5-ylamino)-N-(2-(diethylamino)ethyl)thiazolo[5,4-f]quinazoline-2-carboxi-midamide] | > 10 µM | 6.5 µM | > 10 µM | 0.8 µM | – | – | –
N=C(NCCN1CCOCC1)c1nc2ccc3ncnc(Nc4ccc(F)c(Cl)c4)c3c2s1 [Compound 10a, 9-(3-Chloro-4-fluorophenylamino)-N-(2-morpholinoethyl)thiazolo[5,4-f]quinazoline-2-carboximid-amide] | > 10 µM | > 10 µM | > 10 µM | 3.5 µM | – | – | –
N=C(NCCN1CCCC1)c1nc2ccc3ncnc(Nc4ccc5c(c4)OCO5)c3c2s1 [Compound 8c, 9-(Benzo[d][1,3]dioxol-5-ylamino)-N-(2-(pyrrolidin-1-yl)ethyl)thiazolo[5,4-f]quinazoline-2-carboxi-midamide] | > 10 µM | 1.1 µM | > 10 µM | 0.36 µM | – | – | –
COc1ccc(Nc2ncnc3ccc4nc(C(N)=O)sc4c23)cc1 [Compound 7h, 9-(4-Methoxyphenylamino)thiazolo[5,4-f]quinazoline-2-carboxamide] | > 10 µM | – | – | 0.3 µM | – | – | > 10 µM
N=C(NCc1ccccc1)c1nc2ccc3ncnc(Nc4ccc5c(c4)OCO5)c3c2s1 [Compound 8f, 9-(Benzo[d][1,3]dioxol-5-ylamino)-N-benzylthiazolo[5,4-f]quinazoline-2-carboximidamide] | > 10 µM | – | – | 2 µM | > 10 µM | > 10 µM | –
NC(=O)c1nc2ccc3ncnc(Nc4ccc(F)c(Cl)c4)c3c2s1 [Compound 10h, 9-(3-Chloro-4-fluorophenylamino)thiazolo[5,4-f]quinazoline-2-carboxamide] | > 10 µM | – | – | 0.66 µM | – | – | > 10 µM
CCN(CC)CCNC(=N)c1nc2ccc3ncnc(Nc4ccc(F)c(Cl)c4)c3c2s1 [Compound 10e, 9-(3-Chloro-4-fluorophenylamino)-N-(2-(diethylamino)ethyl)thiazolo[5,4-f]quinazoline-2-carboxi-midamide] | > 10 µM | > 10 µM | > 10 µM | 7 µM | – | – | –
COC(=N)c1nc2ccc3ncnc(Nc4ccc(OC)cc4)c3c2s1 [Compound 7i, Methyl 9-(4-methoxyphenylamino)thiazolo[5,4-f]quinazoline-2-carbimidate] | > 10 µM | – | – | 0.2 µM | – | > 10 µM | –
COc1ccc(Nc2ncnc3ccc4nc(C(=N)NCCN5CCCCC5)sc4c23)cc1 [Compound 7b, 9-(4-Methoxyphenylamino)-N-(2-(piperidin-1-yl)ethyl)thiazolo[5,4-f]quinazoline-2-carboximidamide] | > 10 µM | – | – | 2.5 µM | > 10 µM | > 10 µM | –
COC(=N)c1nc2ccc3ncnc(Nc4ccc(Br)cc4F)c3c2s1 [Compound 9i, Methyl 9-(4-bromo-2-fluorophenylamino)thiazolo[5,4-f]quinazoline-2-carbimidate] | > 10 µM | – | – | 0.16 µM | – | > 10 µM | –
COC(=N)c1nc2ccc3ncnc(Nc4ccc(F)c(Cl)c4)c3c2s1 [Compound 10i, Methyl 9-(3-chloro-4-fluorophenylamino)thiazolo[5,4-f]quinazoline-2-carbimidate] | – | – | – | – | – | > 10 µM | –
